Measurements taken from patent US12060347B2 (BRISTOL-MYERS SQUIBB COMPANY, priority 2016, dated 2024).

What follows are molecules tested against T1, human PAR4 (Homo sapiens, UniProt Q96RI0) (assay: PAR4 FLIPR assay: antagonism of agonist-peptide-induced calcium mobilization in PAR4-expressing HEK293 cells). Conditions: H-Ala-Phe(4-F)-[…]NH2-induced intracellular calcium mobilization, 11-point curves.
T1 construct: expressed in transfected cells; host or cells: HEK293 PAR4 Clone 1.2A (BMS Arctic ID 383940)
T1 sequence (Q96RI0 18-385): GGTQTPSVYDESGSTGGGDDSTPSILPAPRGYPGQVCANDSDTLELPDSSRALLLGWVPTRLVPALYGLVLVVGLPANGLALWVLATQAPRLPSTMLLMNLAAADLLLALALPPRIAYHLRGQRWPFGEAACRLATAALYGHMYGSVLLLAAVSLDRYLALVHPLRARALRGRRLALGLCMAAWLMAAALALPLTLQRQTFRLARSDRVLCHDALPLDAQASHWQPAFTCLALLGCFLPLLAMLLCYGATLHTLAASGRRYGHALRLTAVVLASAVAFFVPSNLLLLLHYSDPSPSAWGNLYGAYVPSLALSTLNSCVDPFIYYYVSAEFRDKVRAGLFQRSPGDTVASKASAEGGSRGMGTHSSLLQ
Format: cell-based

Structure (SMILES)	IC50 [nM]
COc1cnc2c(-c3nc4cc(F)c(OC[C@@H](C)OC(=O)Nc5ccc(C#N)nc5)cc4s3)cc(C)cc2n1 [Example 351, (R)-1-((5-fluoro-2-(2-methoxy-7-methylquinoxalin-5-yl)benzo[d]thiazol-6-yl)oxy) propan-2-yl (6-cyanopyridin-3-yl)carbamate]	2.7
COc1cnc2c(-c3nc4cc(F)c(OC[C@@H](C)OC(=O)NCCC(N)=O)cc4s3)cc(C)cc2n1 [Example 352, (R)-1-((5-fluoro-2-(2-methoxy-7-methylquinoxalin-5-yl)benzo[d]thiazol-6-yl)oxy)propan-2-yl (3-amino-3-oxopropyl) carbamate]	390
COc1cnc2c(-c3nc4cc(F)c(OC[C@@H](C)OC(=O)Nc5ccnnc5)cc4s3)cc(C)cc2n1 [Example 353, (R)-1-((5-fluoro-2-(2-methoxy-7-methylquinoxalin-5-yl)benzo[d]thiazol-6-yl)oxy)propan-2-yl pyridazin-4-ylcarbamate]	22
COc1cnc2c(-c3nc4cc(F)c(OC[C@@H](C)OC(=O)Nc5cnc6[nH]ccc6c5)cc4s3)cc(C)cc2n1 [Example 354, (R)-1-((5-fluoro-2-(2-methoxy-7-methylquinoxalin-5-yl)benzo[d]thiazol-6-yl)oxy)propan-2-yl 1H-pyrrolo[2,3-b]pyridin-5-ylcarbamate]	1.2
COc1cnc2c(-c3nc4cc(F)c(OC[C@@H](C)OC(=O)Nc5ccc6[nH]ccc6c5)cc4s3)cc(C)cc2n1 [Example 355, (R)-1-((5-fluoro-2-(2-methoxy-7-methylquinoxalin-5-yl)benzo[d]thiazol-6-yl)oxy)propan-2-yl 1H-indol-5-ylcarbamate]	17
COc1cnc2c(-c3nc4cc(F)c(OC[C@@H](C)OC(=O)Nc5ccc6c(ccn6C)c5)cc4s3)cc(C)cc2n1 [Example 356, (R)-1-((5-fluoro-2-(2-methoxy-7-methylquinoxalin-5-yl)benzo[d]thiazol-6-yl)oxy)propan-2-yl (1-methyl-1H-indol-5-yl)carbamate]	2.1
COc1cnc2c(-c3nc4cc(F)c(OC[C@@H](C)OC(=O)Nc5cnc(C)nc5)cc4s3)cc(C)cc2n1 [Example 357, (R)-1-((5-fluoro-2-(2-methoxy-7-methylquinoxalin-5-yl)benzo[d]thiazol-6-yl)oxy)propan-2-yl (2-methylpyrimidin-5-yl)carbamate]	6.7
COc1cnc2c(-c3nc4c(Cl)c(F)c(OCCOC(N)=O)cc4s3)cc(C)cc2n1 [Example 358, 2-((4-chloro-5-fluoro-2-(2-methoxy-7-methylquinoxalin-5-yl)benzo[d]thiazol-6-yl)oxy) ethyl carbamate]	270
COc1cnc2c(-c3nc4c(Cl)c(F)c(OCCOC(=O)Nc5cnc6[nH]ccc6c5)cc4s3)cc(C)cc2n1 [Example 359, 2-((4-chloro-5-fluoro-2-(2-methoxy-7-methylquinoxalin-5-yl)benzo[d]thiazol-6-yl)oxy)ethyl 1H-pyrrolo[2,3-b]pyridin-5-ylcarbamate]	170
COc1cnc2c(-c3nc4c(Cl)c(F)c(OCCOC(=O)Nc5ccc6[nH]ccc6c5)cc4s3)cc(C)cc2n1 [Example 360, 2-((4-chloro-5-fluoro-2-(2-methoxy-7-methylquinoxalin-5-yl)benzo[d]thiazol-6-yl)oxy)ethyl 1H-indol-5-ylcarbamate]	160
COC(=O)c1ccc(NC(=O)OCCOc2cc3sc(-c4cc(C)cc5nc(OC)cnc45)nc3c(Cl)c2F)cn1 [Example 361, methyl 5-(((2-((4-chloro-5-fluoro-2-(2-methoxy-7-methylquinoxalin-5-yl)benzo[d]thiazol-6-yl)oxy)ethoxy)carbonyl)amino)picolinate]	5.5
COc1cnc2c(-c3nc4c(Cl)c(F)c(OCCOC(=O)Nc5cnc(C)nc5)cc4s3)cc(C)cc2n1 [Example 362, 2-((4-chloro-5-fluoro-2-(2-methoxy-7-methylquinoxalin-5-yl)benzo[d]thiazol-6-yl)oxy)ethyl (2-methylpyrimidin-5-yl)carbamate]	4.1
COc1cnc2c(-c3nc4c(Cl)c(F)c(OCCOC(=O)Nc5nsc(OC)n5)cc4s3)cc(C)cc2n1 [Example 363, 2-((4-chloro-5-fluoro-2-(2-methoxy-7-methylquinoxalin-5-yl)benzo[d]thiazol-6-yl)oxy)ethyl (5-methoxy-1,2,4-thiadiazol-3-yl)carbamate]	1700
COc1cnc2c(-c3nc4c(Cl)c(F)c(OCCOC(=O)Nc5cn[nH]c5)cc4s3)cc(C)cc2n1 [Example 364, 2-((4-chloro-5-fluoro-2-(2-methoxy-7-methylquinoxalin-5-yl)benzo[d]thiazol-6-yl)oxy)ethyl 1H-pyrazol-4-ylcarbamate]	19
COc1cnc2c(-c3nc4c(Cl)c(F)c(OCCOC(=O)Nc5cnn(C)c5)cc4s3)cc(C)cc2n1 [Example 365, 2-((4-chloro-5-fluoro-2-(2-methoxy-7-methylquinoxalin-5-yl)benzo[d]thiazol-6-yl)oxy) ethyl (1-methyl-1H-pyrazol-4-yl)carbamate]	2.5
COc1cnc2c(-c3nc4c(Cl)c(F)c(OCCOC(=O)Nc5nnc(C)o5)cc4s3)cc(C)cc2n1 [Example 366, 2-((4-chloro-5-fluoro-2-(2-methoxy-7-methylquinoxalin-5-yl)benzo[d]thiazol-6-yl)oxy)ethyl (5-methyl-1,3,4-oxadiazol-2-yl) carbamate]	550
COc1cnc2c(-c3nc4c(Cl)c(F)c(OCCOC(=O)Nc5cnc6c(c5)cc(C)n6C)cc4s3)cc(C)cc2n1 [Example 367, 2-((4-chloro-5-fluoro-2-(2-methoxy-7-methylquinoxalin-5-yl)benzo[d]thiazol-6-yl)oxy)ethyl (1,2-dimethyl-1H-pyrrolo[2,3-b]pyridin-5-yl)carbamate]	12
COc1cnc2c(-c3nc4c(Cl)c(F)c(OCCOC(=O)NCc5ccncc5)cc4s3)cc(C)cc2n1 [Example 369, 2-((4-chloro-5-fluoro-2-(2-methoxy-7-methylquinoxalin-5-yl)benzo[d]thiazol-6-yl)oxy)ethyl (pyridin-4-ylmethyl)carbamate]	13
COc1cnc2c(-c3nc4c(Cl)c(F)c(OC[C@@H](C)OC(=O)Nc5nnc(C)s5)cc4s3)cc(C)cc2n1 [Example 370, (R)-1-((4-chloro-5-fluoro-2-(2-methoxy-7-methylquinoxalin-5-yl)benzo[d]thiazol-6-yl)oxy)propan-2-yl (5-methyl-1,3,4-thiadiazol-2-yl)carbamate]	5.8
COc1cnc2c(-c3nc4c(Cl)c(F)c(OC[C@@H](C)OC(=O)Nc5ccc(C#N)nc5)cc4s3)cc(C)cc2n1 [Example 371, (R)-1-((4-chloro-5-fluoro-2-(2-methoxy-7-methylquinoxalin-5-yl)benzo[d]thiazol-6-yl)oxy)propan-2-yl (6-cyanopyridin-3-yl)carbamate]	1.8
COc1cnc2c(-c3nc4c(Cl)c(F)c(OC[C@@H](C)OC(=O)Nc5cccnc5)cc4s3)cc(C)cc2n1 [Example 372, (R)-1-((4-chloro-5-fluoro-2-(2-methoxy-7-methylquinoxalin-5-yl)benzo[d]thiazol-6-yl)oxy)propan-2-yl pyridin-3-ylcarbamate]	1.3
COc1cnc2c(-c3nc4c(Cl)c(F)c(OC[C@@H](C)OC(=O)Nc5ccc6[nH]c(=O)oc6c5)cc4s3)cc(C)cc2n1 [Example 373, (R)-1-((4-chloro-5-fluoro-2-(2-methoxy-7-methylquinoxalin-5-yl)benzo[d]thiazol-6-yl)oxy)propan-2-yl (2-oxo-2,3-dihydrobenzo[d]oxazol-6-yl)carbamate]	0.9
COc1cnc2c(-c3nc4c(Cl)c(F)c(OC[C@@H](C)OC(=O)Nc5ccc(C(F)(F)F)nc5)cc4s3)cc(C)cc2n1 [Example 374, (R)-1-((4-chloro-5-fluoro-2-(2-methoxy-7-methylquinoxalin-5-yl)benzo[d]thiazol-6-yl)oxy)propan-2-yl (6-(trifluoromethyl)pyridin-3-yl)carbamate]	110
COc1cnc2c(-c3nc4c(Cl)c(F)c(OC[C@@H](C)OC(=O)Nc5cnc6c(c5)CC=N6)cc4s3)cc(C)cc2n1 [Example 375, (R)-1-((4-chloro-5-fluoro-2-(2-methoxy-7-methylquinoxalin-5-yl)benzo[d]thiazol-6-yl)oxy)propan-2-yl 3H-pyrrolo [2,3-b]pyridin-5-yl carbamate]	1.7
COc1cnc2c(-c3nc4c(Cl)c(F)c(OC[C@@H](C)OC(=O)Nc5cnccc5C)cc4s3)cc(C)cc2n1 [Example 376, (R)-1-((4-chloro-5-fluoro-2-(2-methoxy-7-methylquinoxalin-5-yl)benzo[d]thiazol-6-yl)oxy)propan-2-yl (4-methylpyridin-3-yl) carbamate]	72
COc1cnc2c(-c3nc4c(Cl)c(F)c(OC[C@@H](C)OC(=O)Nc5ccc(C)nc5)cc4s3)cc(C)cc2n1 [Example 377, (R)-1-((4-chloro-5-fluoro-2-(2-methoxy-7-methylquinoxalin-5-yl)benzo[d]thiazol-6-yl)oxy)propan-2-yl (6-methylpyridin-3-yl)carbamate]	4.3
COC(=O)c1cc(NC(=O)OCCOc2cc3sc(-c4cc(C)cc5nc(OC)cnc45)nc3c(Cl)c2F)cn1C [Example 378, methyl 4-(((2-((4-chloro-5-fluoro-2-(2-methoxy-7-methylquinoxalin-5-yl)benzo[d]thiazol-6-yl)oxy)ethoxy)carbonyl)amino)-1-methyl-1H-pyrrole-2-carboxylate]	8.7
